In ChEMBL document CHEMBL4507291 (2021):

Experiments:
[1] = molecular target: Alpha-1B adrenergic receptor (Homo sapiens) (UniProt P35368); conditions: Compound concentration 10.0 uM
[2] = molecular target: Insulin receptor (Homo sapiens) (UniProt P06213); test: INSR Kinase screen; conditions: Compound concentration 1.0 uM
[3] = molecular target: Mitogen-activated protein kinase kinase kinase kinase 4 (Homo sapiens) (UniProt O95819); test: MAP4K4 (HGK) Kinase screen; conditions: Compound concentration 1.0 uM
[4] = species: Rattus norvegicus; test: Testosterone Eurofins-Panlabs radioligand binding assay; design: ligand concentration 1.5 nM; conditions: Compound concentration 10.0 uM
[5] = molecular target: Casein kinase I isoform epsilon (Homo sapiens) (UniProt P49674); test: CSNK1E (CK1 epsilon) Kinase screen; conditions: Compound concentration 1.0 uM
[6] = molecular target: T1, Serine/threonine-protein kinase D2 (Homo sapiens) (UniProt Q9BZL6); test: PRKD2 (PKD2) Kinase screen; conditions: Compound concentration 1.0 uM
T1 sequence (whole entry): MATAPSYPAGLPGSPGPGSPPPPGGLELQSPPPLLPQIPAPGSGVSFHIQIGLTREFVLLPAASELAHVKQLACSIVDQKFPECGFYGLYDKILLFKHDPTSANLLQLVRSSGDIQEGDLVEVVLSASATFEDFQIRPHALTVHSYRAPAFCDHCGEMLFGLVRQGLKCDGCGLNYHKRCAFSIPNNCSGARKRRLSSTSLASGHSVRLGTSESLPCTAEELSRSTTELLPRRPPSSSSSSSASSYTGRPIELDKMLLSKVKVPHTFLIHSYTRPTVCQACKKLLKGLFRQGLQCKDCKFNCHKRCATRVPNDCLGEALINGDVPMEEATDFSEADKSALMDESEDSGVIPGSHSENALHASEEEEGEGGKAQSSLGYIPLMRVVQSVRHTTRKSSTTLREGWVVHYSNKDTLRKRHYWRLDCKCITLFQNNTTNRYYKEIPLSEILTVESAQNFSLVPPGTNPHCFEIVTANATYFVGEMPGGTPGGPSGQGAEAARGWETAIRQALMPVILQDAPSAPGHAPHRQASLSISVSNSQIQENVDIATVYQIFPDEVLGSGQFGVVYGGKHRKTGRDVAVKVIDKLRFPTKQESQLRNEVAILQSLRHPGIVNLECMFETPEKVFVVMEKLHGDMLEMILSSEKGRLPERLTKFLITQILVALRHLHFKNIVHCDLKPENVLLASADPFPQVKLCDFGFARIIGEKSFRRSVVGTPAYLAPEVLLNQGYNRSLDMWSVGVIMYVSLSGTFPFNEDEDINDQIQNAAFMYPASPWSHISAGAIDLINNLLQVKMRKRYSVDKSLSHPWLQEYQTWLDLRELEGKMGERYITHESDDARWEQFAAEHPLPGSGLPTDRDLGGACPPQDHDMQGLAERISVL

[7] = molecular target: Sodium-dependent noradrenaline transporter (Homo sapiens, UniProt P23975)
[8] = molecular target: Vascular endothelial growth factor receptor 3 (Homo sapiens) (UniProt P35916); test: FLT4 (VEGFR3) Kinase screen; conditions: Compound concentration 1.0 uM
[9] = molecular target: Proto-oncogene tyrosine-protein kinase Src (Homo sapiens) (UniProt P12931); test: SRC N1 Kinase screen; conditions: Compound concentration 1.0 uM
[10] = molecular target: SRSF protein kinase 3 (Homo sapiens) (UniProt Q9UPE1); test: STK23 (MSSK1) Kinase screen; conditions: Compound concentration 1.0 uM
[11] = molecular target: Tyrosine-protein kinase Fgr (Homo sapiens) (UniProt P09769); test: FGR Kinase screen; conditions: Compound concentration 1.0 uM
[12] = test system: Serine/threonine-protein kinase B-raf (Homo sapiens), P15056 [V600E]; test: BRAF V599E Kinase screen; conditions: Compound concentration 1.0 uM
[13] = molecular target: T2, 5-hydroxytryptamine receptor 1A (Homo sapiens) (UniProt P08908); conditions: Compound concentration 10.0 uM
T2 sequence (whole entry): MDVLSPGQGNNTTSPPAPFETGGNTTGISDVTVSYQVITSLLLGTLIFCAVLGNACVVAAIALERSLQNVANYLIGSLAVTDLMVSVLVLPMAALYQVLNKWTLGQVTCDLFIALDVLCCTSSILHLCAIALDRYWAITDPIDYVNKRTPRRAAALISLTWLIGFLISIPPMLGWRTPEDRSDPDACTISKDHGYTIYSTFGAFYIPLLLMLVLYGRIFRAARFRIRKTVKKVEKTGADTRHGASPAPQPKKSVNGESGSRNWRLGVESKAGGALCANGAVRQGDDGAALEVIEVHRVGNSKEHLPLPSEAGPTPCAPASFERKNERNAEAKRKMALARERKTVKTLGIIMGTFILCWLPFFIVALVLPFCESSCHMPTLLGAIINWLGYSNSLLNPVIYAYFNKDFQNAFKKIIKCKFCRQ

[14] = molecular target: Tyrosine-protein kinase FRK (Homo sapiens) (UniProt P42685); test: FRK (PTK5) Kinase screen; conditions: Compound concentration 1.0 uM
[15] = molecular target: Dual specificity protein kinase CLK3 (Homo sapiens) (UniProt P49761); test: CLK3 Kinase screen; conditions: Compound concentration 1.0 uM
[16] = molecular target: T3, Peroxisome proliferator-activated receptor gamma (Homo sapiens) (UniProt P37231); test: (§1) PPARgamma Eurofins-Panlabs radioligand binding assay; design: ligand concentration 5 nM, non-specific ligand with concentration 0.5 µM L-797773, incubation time 18 h, incubation temperature 15 °C
T3 sequence (whole entry): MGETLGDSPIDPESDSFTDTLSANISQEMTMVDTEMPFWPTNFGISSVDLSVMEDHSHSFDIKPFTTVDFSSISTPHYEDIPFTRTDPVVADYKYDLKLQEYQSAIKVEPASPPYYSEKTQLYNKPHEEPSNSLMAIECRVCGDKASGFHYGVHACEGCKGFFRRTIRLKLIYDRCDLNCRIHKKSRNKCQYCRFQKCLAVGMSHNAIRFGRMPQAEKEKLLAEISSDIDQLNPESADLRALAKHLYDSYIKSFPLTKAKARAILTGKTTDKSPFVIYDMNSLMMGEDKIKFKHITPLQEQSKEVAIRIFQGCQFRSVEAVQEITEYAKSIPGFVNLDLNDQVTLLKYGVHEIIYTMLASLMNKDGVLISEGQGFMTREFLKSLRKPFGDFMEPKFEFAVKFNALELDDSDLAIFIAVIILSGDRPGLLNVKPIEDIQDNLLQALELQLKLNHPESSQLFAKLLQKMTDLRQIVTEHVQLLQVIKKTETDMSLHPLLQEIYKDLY

[17] = molecular target: Peroxisome proliferator-activated receptor gamma (Homo sapiens, UniProt P37231); test: as §1; design: ligand concentration 5 nM, non-specific ligand with concentration 0.5 µM L-797773, incubation time 18 h, incubation temperature 15 °C
[18] = molecular target: PAS domain-containing serine/threonine-protein kinase (Homo sapiens) (UniProt Q96RG2); test: PASK Kinase screen; conditions: Compound concentration 1.0 uM

Chain of Sodium-dependent noradrenaline transporter (P23975 whole entry): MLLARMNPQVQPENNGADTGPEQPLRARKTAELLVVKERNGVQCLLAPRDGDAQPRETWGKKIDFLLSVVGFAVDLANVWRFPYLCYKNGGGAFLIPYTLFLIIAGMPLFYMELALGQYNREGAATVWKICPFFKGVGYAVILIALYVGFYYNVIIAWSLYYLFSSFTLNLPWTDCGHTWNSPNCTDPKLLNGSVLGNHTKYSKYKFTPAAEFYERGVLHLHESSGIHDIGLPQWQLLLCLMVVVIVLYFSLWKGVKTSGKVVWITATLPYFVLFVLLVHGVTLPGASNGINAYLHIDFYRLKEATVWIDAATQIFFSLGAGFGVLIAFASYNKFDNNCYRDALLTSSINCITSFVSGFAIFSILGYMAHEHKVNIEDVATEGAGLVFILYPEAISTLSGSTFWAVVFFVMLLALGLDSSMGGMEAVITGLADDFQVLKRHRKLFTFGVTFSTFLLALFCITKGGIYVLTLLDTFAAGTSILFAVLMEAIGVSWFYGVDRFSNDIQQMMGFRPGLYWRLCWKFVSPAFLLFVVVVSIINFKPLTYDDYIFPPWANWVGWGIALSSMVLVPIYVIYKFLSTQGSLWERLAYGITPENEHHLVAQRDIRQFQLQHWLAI
Chain of Alpha-1B adrenergic receptor (Homo sapiens) (P35368 whole entry): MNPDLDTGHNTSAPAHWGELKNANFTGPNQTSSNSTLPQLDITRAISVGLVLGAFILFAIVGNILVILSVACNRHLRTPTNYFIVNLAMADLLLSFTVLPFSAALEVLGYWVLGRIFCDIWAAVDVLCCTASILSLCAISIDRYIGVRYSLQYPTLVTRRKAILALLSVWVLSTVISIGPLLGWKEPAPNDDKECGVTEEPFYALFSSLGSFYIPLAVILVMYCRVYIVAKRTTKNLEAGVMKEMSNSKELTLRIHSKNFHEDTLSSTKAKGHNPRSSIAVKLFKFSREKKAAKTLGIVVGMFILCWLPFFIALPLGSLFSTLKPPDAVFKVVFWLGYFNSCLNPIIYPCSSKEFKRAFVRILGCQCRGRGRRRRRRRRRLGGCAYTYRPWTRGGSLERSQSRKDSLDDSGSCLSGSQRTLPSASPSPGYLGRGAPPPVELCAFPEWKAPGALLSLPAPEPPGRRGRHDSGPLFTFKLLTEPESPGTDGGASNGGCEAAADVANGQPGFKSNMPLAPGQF
Chain of Tyrosine-protein kinase Fgr (Homo sapiens) (P09769 2-529 limits assumed): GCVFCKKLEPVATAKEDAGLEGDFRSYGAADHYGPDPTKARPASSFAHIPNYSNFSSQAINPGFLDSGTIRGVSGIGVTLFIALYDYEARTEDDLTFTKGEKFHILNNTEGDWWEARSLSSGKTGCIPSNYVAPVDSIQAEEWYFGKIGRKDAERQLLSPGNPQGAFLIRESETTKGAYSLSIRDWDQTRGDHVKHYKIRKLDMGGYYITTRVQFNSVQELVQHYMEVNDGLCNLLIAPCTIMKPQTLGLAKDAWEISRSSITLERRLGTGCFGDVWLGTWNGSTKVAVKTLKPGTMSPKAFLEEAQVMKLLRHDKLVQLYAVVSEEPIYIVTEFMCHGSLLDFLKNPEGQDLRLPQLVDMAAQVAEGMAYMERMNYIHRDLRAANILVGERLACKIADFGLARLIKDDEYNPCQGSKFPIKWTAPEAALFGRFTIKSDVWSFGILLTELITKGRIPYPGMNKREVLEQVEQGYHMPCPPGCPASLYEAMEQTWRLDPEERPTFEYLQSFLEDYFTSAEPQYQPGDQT
Chain of Vascular endothelial growth factor receptor 3 (Homo sapiens) (P35916 whole entry): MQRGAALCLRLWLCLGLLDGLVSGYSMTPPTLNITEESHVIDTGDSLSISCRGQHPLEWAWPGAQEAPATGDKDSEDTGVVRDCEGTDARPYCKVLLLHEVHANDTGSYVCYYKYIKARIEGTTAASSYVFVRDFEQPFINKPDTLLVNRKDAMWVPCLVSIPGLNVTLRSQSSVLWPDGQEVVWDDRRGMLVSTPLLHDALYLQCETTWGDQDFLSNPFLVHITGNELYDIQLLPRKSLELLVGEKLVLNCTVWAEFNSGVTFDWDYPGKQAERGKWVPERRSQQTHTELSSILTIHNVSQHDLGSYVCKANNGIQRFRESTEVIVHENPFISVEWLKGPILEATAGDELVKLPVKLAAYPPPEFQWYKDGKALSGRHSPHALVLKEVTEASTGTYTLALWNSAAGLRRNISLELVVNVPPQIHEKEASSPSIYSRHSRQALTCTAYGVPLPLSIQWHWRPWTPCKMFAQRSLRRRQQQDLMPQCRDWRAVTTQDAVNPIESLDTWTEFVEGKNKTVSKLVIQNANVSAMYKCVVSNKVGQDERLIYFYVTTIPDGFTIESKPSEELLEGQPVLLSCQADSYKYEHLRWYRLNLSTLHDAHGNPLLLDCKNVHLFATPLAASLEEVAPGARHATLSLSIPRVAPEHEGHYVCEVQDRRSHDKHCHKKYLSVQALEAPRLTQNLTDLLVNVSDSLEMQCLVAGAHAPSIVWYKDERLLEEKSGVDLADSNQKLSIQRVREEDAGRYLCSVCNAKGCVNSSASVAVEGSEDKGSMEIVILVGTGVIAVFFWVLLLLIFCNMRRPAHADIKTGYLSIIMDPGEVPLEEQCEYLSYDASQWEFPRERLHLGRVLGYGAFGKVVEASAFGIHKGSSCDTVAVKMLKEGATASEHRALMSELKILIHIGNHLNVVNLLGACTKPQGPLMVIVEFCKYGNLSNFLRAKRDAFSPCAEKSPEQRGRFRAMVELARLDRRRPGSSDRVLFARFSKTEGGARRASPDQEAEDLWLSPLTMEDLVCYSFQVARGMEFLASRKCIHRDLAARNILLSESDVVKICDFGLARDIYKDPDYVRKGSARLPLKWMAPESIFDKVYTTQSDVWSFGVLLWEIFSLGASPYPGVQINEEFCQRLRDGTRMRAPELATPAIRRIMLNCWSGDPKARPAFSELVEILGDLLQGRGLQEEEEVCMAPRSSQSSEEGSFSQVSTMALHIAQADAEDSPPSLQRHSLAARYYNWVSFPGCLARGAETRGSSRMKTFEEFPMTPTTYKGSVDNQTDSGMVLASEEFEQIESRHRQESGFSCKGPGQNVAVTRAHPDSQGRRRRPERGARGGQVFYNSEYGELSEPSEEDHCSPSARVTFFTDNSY
Chain of Tyrosine-protein kinase FRK (Homo sapiens) (P42685 whole entry): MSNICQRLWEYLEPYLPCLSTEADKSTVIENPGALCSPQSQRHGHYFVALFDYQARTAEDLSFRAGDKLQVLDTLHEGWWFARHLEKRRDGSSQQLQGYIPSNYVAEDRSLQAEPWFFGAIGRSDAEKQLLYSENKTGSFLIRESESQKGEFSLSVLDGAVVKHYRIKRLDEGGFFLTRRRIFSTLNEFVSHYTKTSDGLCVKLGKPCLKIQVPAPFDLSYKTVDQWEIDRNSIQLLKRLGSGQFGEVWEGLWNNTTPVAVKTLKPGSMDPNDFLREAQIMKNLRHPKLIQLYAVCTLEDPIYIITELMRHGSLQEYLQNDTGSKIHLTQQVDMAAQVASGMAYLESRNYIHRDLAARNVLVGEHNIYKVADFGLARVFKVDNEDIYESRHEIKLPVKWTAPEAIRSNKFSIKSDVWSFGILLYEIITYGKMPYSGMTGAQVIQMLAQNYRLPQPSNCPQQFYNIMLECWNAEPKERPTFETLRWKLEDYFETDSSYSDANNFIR
Chain of Insulin receptor (Homo sapiens) (P06213 28-758 limits assumed): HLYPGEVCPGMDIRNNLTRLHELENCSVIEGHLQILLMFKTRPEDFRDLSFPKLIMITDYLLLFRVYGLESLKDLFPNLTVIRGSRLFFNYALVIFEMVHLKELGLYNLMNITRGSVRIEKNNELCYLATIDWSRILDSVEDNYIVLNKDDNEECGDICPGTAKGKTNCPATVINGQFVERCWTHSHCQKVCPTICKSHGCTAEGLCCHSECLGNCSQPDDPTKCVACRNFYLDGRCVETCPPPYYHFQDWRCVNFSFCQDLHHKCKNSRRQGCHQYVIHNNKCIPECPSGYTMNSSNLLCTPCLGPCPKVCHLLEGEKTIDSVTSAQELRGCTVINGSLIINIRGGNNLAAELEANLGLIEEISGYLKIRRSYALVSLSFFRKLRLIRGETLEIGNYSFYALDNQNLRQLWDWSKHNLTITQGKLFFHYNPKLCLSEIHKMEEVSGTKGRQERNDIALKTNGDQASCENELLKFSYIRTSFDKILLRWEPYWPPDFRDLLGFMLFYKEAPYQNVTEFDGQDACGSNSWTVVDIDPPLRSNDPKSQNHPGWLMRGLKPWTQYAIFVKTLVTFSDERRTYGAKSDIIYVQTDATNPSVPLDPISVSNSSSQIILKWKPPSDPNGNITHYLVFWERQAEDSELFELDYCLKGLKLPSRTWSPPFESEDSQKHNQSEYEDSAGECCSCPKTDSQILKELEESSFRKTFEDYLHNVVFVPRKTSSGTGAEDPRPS
Chain of Insulin receptor (Homo sapiens) (P06213 763-1382 limits assumed): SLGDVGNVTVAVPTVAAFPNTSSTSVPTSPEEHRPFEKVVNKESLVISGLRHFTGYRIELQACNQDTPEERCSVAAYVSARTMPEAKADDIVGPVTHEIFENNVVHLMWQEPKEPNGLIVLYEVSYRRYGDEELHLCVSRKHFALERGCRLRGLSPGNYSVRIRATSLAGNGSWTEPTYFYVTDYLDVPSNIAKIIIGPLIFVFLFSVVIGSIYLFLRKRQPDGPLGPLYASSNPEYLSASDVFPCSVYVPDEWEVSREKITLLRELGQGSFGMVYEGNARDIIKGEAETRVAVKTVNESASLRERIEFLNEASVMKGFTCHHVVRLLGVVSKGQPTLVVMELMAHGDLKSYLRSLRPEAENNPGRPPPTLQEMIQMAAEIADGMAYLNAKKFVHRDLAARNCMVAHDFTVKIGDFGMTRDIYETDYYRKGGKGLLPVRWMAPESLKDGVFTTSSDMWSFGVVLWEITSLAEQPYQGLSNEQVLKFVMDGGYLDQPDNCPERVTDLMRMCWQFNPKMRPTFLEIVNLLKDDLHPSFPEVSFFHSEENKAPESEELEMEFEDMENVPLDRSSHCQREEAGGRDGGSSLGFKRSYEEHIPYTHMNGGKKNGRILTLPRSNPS

## C[C@@H]1CN(c2cc(-c3nn(C)c4ccc(OC5(C)CC5)cc34)ncn2)C[C@H](C)O1 [MLi-2-NC]
[1]
  inhibition: 3.72%

## C[C@@H]1CN(c2cc(-c3n[nH]c4ccc(OC5(C)CC5)cc34)ncn2)C[C@H](C)O1 [MLi-2]
[2]
  inhibition: -0.884%
[3]
  inhibition: 17.1%
[4]
  inhibition: 9%
[5]
  inhibition: 8.14%
[6]
  inhibition: 19%
[7]; Compound concentration 0.01 uM
  inhibition: 6%
[7]; Compound concentration 0.1 uM
  inhibition: 8%
[7]; Compound concentration 1.0 uM
  inhibition: 15%
[7]; Compound concentration 10.0 uM
  inhibition: 77%
[8]
  inhibition: 8.71%
[9]
  inhibition: 5.78%
[10]
  inhibition: 11.9%
[11]
  inhibition: -2.24%
[12]
  inhibition: 10.4%
[13]
  inhibition: -6%
[14]
  inhibition: 7.13%
[15]
  inhibition: 8.93%
[16]; Compound concentration 0.01 uM
  inhibition: 6%
[16]; Compound concentration 0.1 uM
  inhibition: 0%
[16]; Compound concentration 1.0 uM
  inhibition: 10%
[16]; Compound concentration 10.0 uM
  inhibition: 62%
[17]
  Ki: 1190 nM
[18]
  inhibition: -0.0985%
